Results published in ChEMBL document CHEMBL1641467, “Quinazolinones as γ-secretase modulators” (Bioorg Med Chem Lett, 2011).
Converted amounts (≈) assume the structure as drawn.

Tests used:
Gamma-secretase [1] = assay: Inhibition of gamma-secretase in human SH-SY5Y cells overexpressing APP assessed as amyloid beta-42 production by electrochemiluminescent assay
Gamma-secretase [2] = assay: Inhibition of gamma-secretase in human SH-SY5Y cells overexpressing APP assessed as amyloid beta-40 production by electrochemiluminescent assay
[3] = Plasma clearance in Sprague-Dawley rat at 1 mg/kg, iv; type: ADME, organism-based; set-up: dose 1 mg/kg, route intravenous
[4] = Plasma clearance in Sprague-Dawley rat at 2 mg/kg, po; type: ADME, organism-based; set-up: dose 2 mg/kg, route oral
[5] = Volume of distribution at steady state in Sprague-Dawley rat at 1 mg/kg, iv; type: ADME, organism-based; set-up: dose 1 mg/kg, route intravenous; conditions: in vivo
Rattus norvegicus [6] = assay: Volume of distribution at steady state in Sprague-Dawley rat at 2 mg/kg, po; type: ADME, organism-based; set-up: dose 2 mg/kg, route oral; conditions: in vivo
[7] = Half life in Sprague-Dawley rat at 1 mg/kg, iv; type: ADME, organism-based; set-up: dose 1 mg/kg, route intravenous; conditions: in vivo
[8] = Oral bioavailability in Sprague-Dawley rat at 2 mg/kg; type: ADME, organism-based; conditions: in vivo
Rattus norvegicus [9] = assay: Dose normalized AUC in Sprague-Dawley rat at 2 mg/kg, po; type: ADME, organism-based; set-up: dose 2 mg/kg, route oral; conditions: in vivo
[10] = biological target: Voltage-gated inwardly rectifying potassium channel KCNH2 (Homo sapiens, UniProt Q12809)
Description: Displacement of radiolabeled MK-499 from human ERG expressed in HEK293 cells

[11] = Solubility of the compound in PBS buffer; type: physicochemical

Sequence of Voltage-gated inwardly rectifying potassium channel KCNH2 (Q12809 whole entry): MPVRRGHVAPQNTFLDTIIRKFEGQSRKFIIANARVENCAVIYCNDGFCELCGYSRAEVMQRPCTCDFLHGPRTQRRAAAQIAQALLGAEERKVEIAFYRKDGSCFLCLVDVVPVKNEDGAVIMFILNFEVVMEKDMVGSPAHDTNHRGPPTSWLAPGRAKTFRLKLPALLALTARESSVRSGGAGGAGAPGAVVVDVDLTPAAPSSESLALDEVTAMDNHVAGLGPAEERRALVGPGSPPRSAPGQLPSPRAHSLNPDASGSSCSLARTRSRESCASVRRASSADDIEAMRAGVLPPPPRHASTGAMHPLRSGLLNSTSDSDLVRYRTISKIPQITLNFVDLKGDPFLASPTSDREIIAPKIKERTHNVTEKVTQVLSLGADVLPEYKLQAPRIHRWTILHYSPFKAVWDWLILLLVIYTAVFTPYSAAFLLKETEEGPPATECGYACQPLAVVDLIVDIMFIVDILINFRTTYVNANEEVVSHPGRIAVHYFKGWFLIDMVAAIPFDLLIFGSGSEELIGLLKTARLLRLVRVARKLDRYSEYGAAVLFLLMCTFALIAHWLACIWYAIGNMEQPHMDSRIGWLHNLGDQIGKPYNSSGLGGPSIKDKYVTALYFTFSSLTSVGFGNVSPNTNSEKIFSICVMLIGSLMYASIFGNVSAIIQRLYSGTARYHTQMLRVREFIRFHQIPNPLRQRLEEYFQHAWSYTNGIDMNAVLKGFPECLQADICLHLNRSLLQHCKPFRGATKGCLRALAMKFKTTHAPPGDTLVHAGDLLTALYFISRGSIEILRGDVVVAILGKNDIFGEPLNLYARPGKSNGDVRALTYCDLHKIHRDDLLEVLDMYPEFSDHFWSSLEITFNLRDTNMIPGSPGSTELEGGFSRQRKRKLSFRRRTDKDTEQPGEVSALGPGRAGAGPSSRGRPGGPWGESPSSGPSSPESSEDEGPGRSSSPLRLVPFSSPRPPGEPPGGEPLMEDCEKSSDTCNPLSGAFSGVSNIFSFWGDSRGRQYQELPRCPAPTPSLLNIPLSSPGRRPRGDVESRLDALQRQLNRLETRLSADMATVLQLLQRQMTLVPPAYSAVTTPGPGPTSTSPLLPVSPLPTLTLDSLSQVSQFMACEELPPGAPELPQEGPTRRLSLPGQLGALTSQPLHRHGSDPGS

| Structure (SMILES) | IC50 (Gamma-secretase [1]) [µM] | IC50 (Gamma-secretase [2]) [µM] | IC50 [10] [µM] | further results |
| --- | --- | --- | --- | --- |
| COc1cc(/C=C/c2nc3cc(C(F)(F)F)ccc3c(=O)[nH]2)ccc1-n1cnc(C)c1 | 0.37 | 3.74 | – | – |
| CCOC(=O)c1sc2nc(/C=C/c3ccc(-n4cnc(C)c4)c(OC)c3)nc(N)c2c1C | 0.54 | 3.72 | 0.98 | – |
| COc1cc(/C=C/c2nc(NCc3ccccc3)c3c4c(sc3n2)CCC4)ccc1-n1cnc(C)c1 | 1.86 | > 10 | 1.12 | – |
| COc1cc(/C=C/c2nc3sc4c(c3c(=O)[nH]2)CCC4)ccc1-n1cnc(C)c1 | 0.37 | 3.89 | 4.73 | – |
| COc1cc(/C=C/c2nc3sc(C)c(C)c3c(=O)[nH]2)ccc1-n1cnc(C)c1 | 1.65 | > 10 | > 10 | – |
| COc1cc(/C=C/c2nc3scc(C)c3c(=O)[nH]2)ccc1-n1cnc(C)c1 | 1.29 | > 10 | > 10 | – |
| COc1cc(/C=C/c2nc3cc(S(C)(=O)=O)ccc3c(=O)[nH]2)ccc1-n1cnc(C)c1 | 2.18 | 6.74 | – | – |
| COc1cc(/C=C/c2nc(N)c3c4c(sc3n2)CCCCC4)ccc1-n1cnc(C)c1 | 0.2 | 2.03 | – | – |

Further lines, with some results ahead:

| IC50 (Gamma-secretase [1]) [µM] | IC50 (Gamma-secretase [2]) [µM] | Structure (SMILES) | IC50 [10] [µM] | further results |
| --- | --- | --- | --- | --- |
| 0.66 | > 10 | COc1cc(/C=C/c2nc3cc(Cl)ccc3c(=O)[nH]2)ccc1-n1cnc(C)c1 | – | clearance [3]: 6.8 mL/min/kg; CL/F [4]: 8 mL/min/kg; Vd [5]: 1.8 L/kg; Vdss (Rattus norvegicus [6]): 8 L/kg; half-life [7]: 5.8 h; bioavailability [8]: 59%; AUC (Rattus norvegicus [9]): 7 µM·h |
| 4.87 | > 10 | COc1cc(/C=C/c2nc3cccc(F)c3c(=O)[nH]2)ccc1-n1cnc(C)c1 | – | – |
| 0.34 | 4.82 | COc1cc(/C=C/c2nc3cc(Br)ccc3c(=O)[nH]2)ccc1-n1cnc(C)c1 | – | – |
| > 10 | > 10 | COc1cc(/C=C/c2nc3ccccc3c(=O)n2C)ccc1-n1cnc(C)c1 | – | solubility [11]: 33 µM (≈ 12.3 µg/mL) |
| 4.28 | > 10 | COc1cc(/C=C/c2nc3ccc(F)cc3c(=O)[nH]2)ccc1-n1cnc(C)c1 | – | – |
| 0.32 | 2.96 | COc1cc(/C=C/c2nc(N)c3c(n2)oc2ccccc23)ccc1-n1cnc(C)c1 | 0.51 | – |
| 3.89 | 4.95 | COc1cc(/C=C/c2nc3ccccc3c(=O)[nH]2)ccc1-n1cnc(C)c1 | – | – |
| 2.08 | > 10 | COc1cc(/C=C/c2nc3ccccc3c(=O)n2-c2ccccc2)ccc1-n1cnc(C)c1 | 0.99 | – |
| 0.84 | > 10 | COc1cc(/C=C/c2nc3ccccc3[nH]2)ccc1-n1cnc(C)c1 | 0.68 | – |
| 1.07 | 3.33 | COc1cc(/C=C/c2nc(N)nc(Nc3ccccc3)n2)ccc1-n1cnc(C)c1 | – | – |
| 1.69 | 6.1 | COc1cc(/C=C/c2nc(N)c3ccccc3n2)ccc1-n1cnc(C)c1 | 0.14 | solubility [11]: 6 µM (≈ 2.14 µg/mL) |
